{"source": "paper PMC7179450", "about": "“Primary Human Hepatocytes, But not HepG2 or Balb/c 3T3 Cells, Efficiently Metabolize Salinomycin and Are Resistant to Its Cytotoxicity” (Molecules, 2020)", "key": {"[1]": {"test_system": "primary human hepatocytes (PHH)", "experiment": "TPC assay (total protein content) in primary human hepatocytes", "format": "cell-based", "settings": "Hepatocyte, mean ± SEM, n = 3, read-out: EC50 (effective concentration)", "description": "Cryopreserved PHH were purchased from the Primacyt GmbH (Schwerin, Germany). Two different lots were chosen based on CYP activity. The donor was a person. The post-thaw viability was 94.6% for lot HH160531 (used in two repetitions) and 85.0% for lot HH130805. The initial cell viability was determined with the trypan blue exclusion test. The cells were thawed and purified using the Plating and Thawing Kit (Primacyt GmbH). Purified hepatocytes were resuspended in Hepatocyte Plating Medium (Primacyt GmbH) and seeded on collagen-coated 96-well plates at a density of 9 × 10^5 cell/mL and incubated at 37 °C with 5% CO2. After 6 h of incubation, the medium was removed and the cells were washed with PBS. Then Human Hepatocyte Maintenance Medium (HHMM) (Primacyt GmbH) with the studied drugs was added to hepatocytes (100 µL/well). The culture conditions were kept according to the manufacturer’s protocol.\nThe concentration ranges of the drugs were chosen according to their solubility and their plasma level. Each drug was dissolved in DMSO. […] The cytotoxicity was assessed after 24 and 48 h of exposure of cell lines or after 12 and 24 h exposure of PHH. […]\nThe assay was based on staining total cellular protein [14]. […] The absorbance was measured at 595 nm in a microplate reader using blank as a reference. Cytotoxicity was expressed as a percentage of the negative control (0.1% or 0.2% DMSO)."}, "HepG2 cells": {"test_system": "HepG2 cells", "experiment": "NRU assay in HepG2", "format": "cell-based, human", "settings": "for EC50: Homo sapiens, read-out: EC50 (effective concentration)", "description": "The HepG2 cell line was purchased from the American Type Culture Collection (ATCC® HB-8065™). The cells were cultured in Minimum Essential Medium Eagle (MEME) (Sigma–Aldrich Co. (St. Louis, MO, USA)). Normal murine embryonic fibroblasts, Balb/c 3T3 clone A31 cell line (gift from Department of Swine Diseases of the National Veterinary Research Institute in Pulawy) was cultured in Dulbecco’s Modified Eagle’s Medium (DMEM) (Invitrogen Corporations (Paisley, UK)). The media were supplemented with 10% BCS (Balb/c 3T3), 10% FBS (HepG2), 1% L-glutamine, and 1% antibiotic solution. The cells were maintained in 75 cm^2 cell culture flasks in humidified incubator at 37 °C, in an atmosphere of 5% CO2. The medium was refreshed every two or three days and the cells were trypsinized by 0.25% trypsin–0.02% EDTA after reaching 70–80% confluence. The initial cell viability was determined with the trypan blue exclusion test. Single cell suspensions were prepared and adjusted to a density of 2 × 10^5 cell/mL (HepG2) and 1 × 10^5 cell/mL (Balb/c 3T3). The cell suspension was transferred to 96-well plates (100 µL/well) and incubated for 24 h before exposure to the studied drugs.\nThe concentration ranges of the drugs were chosen according to their solubility and their plasma level. Each drug was dissolved in DMSO. The final concentration of DMSO was 0.1% or 0.2% in the medium for both samples and corresponding controls. […] All drug solutions in medium were freshly prepared and protected from light. SAL was tested in seven concentrations from 0.39 to 25 µg/mL. […] The cytotoxicity was assessed after 24 and 48 h of exposure of cell lines or after 12 and 24 h exposure of PHH. […]\nThe assay, based on staining of living cells by neutral red (NR), was performed according to the protocol described by Borenfreund and Puerner. […] After 10 min of shaking, the absorbance of the dissolved NR was measured at 540 nm using a blank as a reference. Cytotoxicity was expressed as a percentage of the negative control (0.1% or 0.2% DMSO)."}, "[2]": {"settings": "rat, in vivo; cited from earlier work"}}, "note": "Read-outs that look alike come from different tables or passages of the source."}
{"smiles": "CC[C@@H](C(=O)[C@@H](C)[C@@H](O)[C@H](C)[C@@H]1O[C@@H]([C@@H](CC)C(=O)O)CC[C@@H]1C)[C@H]1O[C@]2(C=C[C@@H](O)[C@]3(CC[C@@](C)([C@H]4CC[C@](O)(CC)[C@H](C)O4)O3)O2)[C@H](C)C[C@@H]1C", "note": "[SAL, salinomycin]", "values": [{"measurement": "EC50", "setting": "[1]; 12 h exposure", "value": "> 25", "unit": "µg/mL"}, {"measurement": "EC50", "setting": "[1]; 24 h exposure", "value": "> 25", "unit": "µg/mL"}, {"measurement": "lowest concentration with significant effect on lysosomal activity", "setting": "HepG2 cells; HepG2, 24 h, SAL alone or in both drug combinations (Figure S2)", "value": 0.39, "unit": "µg/mL"}, {"measurement": "EC50", "setting": "HepG2 cells; HepG2, 24 h", "value": "0.6 ± 0.2", "unit": "µg/mL"}, {"measurement": "EC50", "setting": "HepG2 cells; HepG2, 48 h", "value": "< 0.39", "unit": "µg/mL"}, {"measurement": "unchanged SAL in excreta, share of administered dose", "setting": "[2]", "value": 2, "unit": "%"}]}
